{
  "source": "BindingDB's records for PubMed 7473144",
  "about": "(Gliatech, 1995)",
  "target": "Hrh3 protein (Rattus norvegicus, UniProt Q5PPG3)",
  "sequence (Q5PPG3 whole entry)": "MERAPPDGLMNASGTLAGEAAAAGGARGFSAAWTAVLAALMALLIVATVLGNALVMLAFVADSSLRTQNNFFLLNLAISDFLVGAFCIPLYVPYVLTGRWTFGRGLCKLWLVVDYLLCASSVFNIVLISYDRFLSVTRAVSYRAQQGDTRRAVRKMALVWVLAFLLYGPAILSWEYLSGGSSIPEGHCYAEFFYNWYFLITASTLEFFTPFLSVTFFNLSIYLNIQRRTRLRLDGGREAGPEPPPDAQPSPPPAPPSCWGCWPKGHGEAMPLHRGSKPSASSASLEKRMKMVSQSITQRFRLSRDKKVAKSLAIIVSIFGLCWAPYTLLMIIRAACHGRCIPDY",
  "data": [
    {"molecule": "S=C(NC1CCCCC1)N1CCC(c2cnc[nH]2)CC1", "values": [
      {"measurement": "Ki", "value": 1.8, "unit": "nM"}
    ]}
  ]
}
